Measurements published in patent publication US9328142B2, “Lipopeptide inhibitors of RAS oncoproteins” (The United States of America, as represented by The …, priority 2011, dated 2016).

Experiments:
[1] = system: H23 lung adenocarcinoma cells (K-Ras mutant); experiment: Growth inhibition, thoracic malignancy cell lines: H23; format: cell-based
[2] = system: Ras protein in H2009 and H2592 cells; experiment: Western blot of Ras protein amount in cancer cells; format: cell-based; conditions: 0-3.0 μM, 18 hours
Procedure: A further experiment was undertaken to determine the effect of analogs of helix 6 and HVR on the amount of K-Ras protein in cancer cells. H2009 (lung adenocarcinoma cells) and H2592 (plural mesothelioma cells) were exposed to varying concentrations (0-3.0 μM) of kR-4A-3, kR-4B-3, or kR-H6-3 for 18 hours. The cells then were lysed and the lysate was analyzed by Western blot using anti-Ras mAb (Cell Biolabs, Inc.).

[3] = system: HCC15 lung squamous cell carcinoma cells (K-Ras WT); experiment: Growth inhibition, thoracic malignancy cell lines: HCC15; format: cell-based
[4] = system: Calu 6 lung adenocarcinoma cells (K-Ras mutant); experiment: Growth inhibition, thoracic malignancy cell lines: Calu 6; format: cell-based; conditions: Calu 6, K-Ras mutant
[5] = system: H2461 malignant pleural mesothelioma cells (K-Ras WT); experiment: Growth inhibition, thoracic malignancy cell lines: H2461; format: cell-based
[6] = system: HCC95 lung squamous cell carcinoma cells (K-Ras WT); experiment: Growth inhibition, thoracic malignancy cell lines: HCC95; format: cell-based
[7] = system: H2373 malignant pleural mesothelioma cells (K-Ras WT); experiment: Growth inhibition, thoracic malignancy cell lines: H2373; format: cell-based
K-Ras in H2592 cells = K-Ras in H2592 cells (Homo sapiens, UniProt P01116); conditions: GI50 concentrations, 18 hours
Text: Goat anti-mouse antibodies with Alexa Fluor TM 594 (red) were used to visualize the anti-Ras mouse mAb.

[8] = system: H157 lung squamous cell carcinoma cells (K-Ras mutant); experiment: Growth inhibition, thoracic malignancy cell lines: H157; format: cell-based
[9] = system: HP-1 malignant pleural mesothelioma cells (K-Ras WT); experiment: Growth inhibition, thoracic malignancy cell lines: HP-1; format: cell-based; conditions: HP-1, K-Ras WT
[10] = system: H2009 lung adenocarcinoma cells (K-Ras mutant); experiment: Growth inhibition, thoracic malignancy cell lines: H2009; format: cell-based
[11] = system: H2882 lung adenocarcinoma cells (K-Ras WT); experiment: Growth inhibition, thoracic malignancy cell lines: H2882; format: cell-based
[12] = system: H460 large cell carcinoma cells (K-Ras mutant); experiment: Growth inhibition, thoracic malignancy cell lines: H460; format: cell-based, human
[13] = system: H2596 malignant pleural mesothelioma cells (K-Ras WT); experiment: Growth inhibition, thoracic malignancy cell lines: H2596; format: cell-based
[14] = system: H358 broncheoalveolar cells (K-Ras mutant); experiment: Growth inhibition, thoracic malignancy cell lines: H358; format: cell-based, human
[15] = system: Calu3 lung adenocarcinoma cells (K-Ras WT); experiment: Growth inhibition, thoracic malignancy cell lines: Calu3; format: cell-based
[16] = system: A549 human lung cancer cell line harboring constitutively active Ras mutant; experiment: MTT growth inhibition assay, A549; format: cell-based
Procedure: MCF-7 (breast cancer), T47D (breast cancer), Colo 205 (colon cancer), JM-1 (rat hepatoma), Sk Mel-2 (melanoma), PLC (human hepatoma), and HepG2 (human hepatoma) were obtained from American Type Cell Culture Collection. MCF-7 cells were grown in RPMI medium supplemented with 10% Fetal Bovine Serum. The remaining cell lines were grown in DMEM medium supplemented with 10% Fetal Bovine Serum. For the assay, cells were seeded into 96 well plates in medium containing 1% Fetal Bovine Serum and 100 μL of a cell suspension containing 5000 cells per well were used for each well. Cell growth was evaluated utilizing MTT ((3-(4,5-Dimethylthiazol-2-yl)-2,5-diphenyltetrazolium). The absorbance of the wells at 544 nm was determined by a FLUOstar/POLARstar Galaxy (BMG Lab Technologies GmbH) microplate reader.
The growth inhibitory activity of compounds was compared using the A549 human lung cancer cell line harboring constitutively active G12D Ras mutant with the help of an MTT assay. […] Stepwise extensions and truncations confirmed that the peptide had the optimal length (see Table 1).
The growth inhibitory activity of compounds was compared using the A549 human lung cancer cell line harboring constitutively active G12D Ras mutant with the help of an MTT assay.

[17] = target: 15N-labeled truncated K-Ras (1-166) (Homo sapiens, UniProt P01116); conditions: 200 μM protein, 25° C., chemical shift perturbations Q25, N26, S32, T35, E37
Procedure: The titration was followed by NMR ^15N-edited HSQC spectra acquired on a 600 MHz Bruker spectrometer at 25° C.

[18] = system: Lewis lung carcinoma LL/2 (LLC1) cells; experiment: Lewis lung carcinoma LLC1 isograft growth; format: in vivo, female CB57Bl/6 mice; conditions: 10 mg/kg s.c. near the tumor every second day
Procedure: Lewis lung carcinoma LL/2 (LLC1) (ATCC Catalog No. CRL-1642) cells were grown in DMEM medium containing 10% FBS. Cells were trypsinized and suspended in PBS. 3×10^6 LLC1 cells in 200 μl PBS were injected subcutaneously to the right flank of 8 weeks old female CB57Bl/6 mice.
Ras inhibitor injections started 2 weeks after LLC1 injections when tumors were at least 3 mm in diameter. For injections, solid kR-H6-48 was initially dissolved in DMSO to yield 20 mg/mL stock solution. DMSO stocks were diluted 20-fold in PBS pre-warmed to 35-37° C. 200 μl of the resulting solution (10 mg/kg dose) was injected subcutaneously near the tumor(s) every second day. The control group received 200 μl of 5% DMSO in PBS. Tumor size was measured with a caliper before each injection. The mice were sacrificed when the tumors reached maximal allowed size.

[19] = system: activated (GTP-bound) Ras in H358 human lung cancer cells; experiment: Raf-RBD pull-down of active (GTP-bound) Ras; format: cell-based; conditions: 5 μM, varying exposure times
Procedure: H358 human lung cancer cells were grown in 6-well plates in DMEM medium containing 10% FBS. When the cells were about 70% confluent, the medium was replaced with DMEM containing 1% FBS. Two hours later, Ras inhibitors (kR-H6-48, HR-1, kR-4A-4, or kR-4B-2) were added to provide a final concentration of 5 μM.
After varying exposure times, the cells were rinsed with PBS and lysed. The lysates were cleared by centrifugation, incubated with immobilized Raf-RBD beads (which bind Ras) and analyzed by Western blot using manufacturer's protocols (Cytoskeleton, Inc., Denver, Colo.; Catalog No. BK008). The bands corresponding to active (GTP-bound) Ras were quantified with the help of MIPAV software.

[20] = system: Ras-dependent cancer cells (H358, SKBR3, SKOV3, ID8, MPR-178); experiment: MTT growth assay on Ras-dependent cancer cells; format: cell-based, human, murine; conditions: 48 hours, 1% FBS
Procedure: Ras-dependent cancer cells (H358 human lung cancer cells, SKBR3 human breast cancer cells, SKOV3 human ovarian cancer cells, ID8 murine ovarian cancer cells, and MPR-178 murine prostate cancer cells) were grown in DMEM medium containing 1% FBS and exposed to varying concentrations of Ras inhibitors (kR-H6-48 and HR-1) for 48 hours. Cell growth was evaluated utilizing an MTT ((3-(4,5-Dimethylthiazol-2-yl)-2,5-diphenyltetrazolium) assay. The absorbance of the wells at 544 nm was determined by a FLUOstar/POLARstar Galaxy (BMG Lab Technologies GmbH, Ortenberg, Germany) microplate reader. The assays were performed on untreated (control) and test cells. Cellular responses were calculated from the data using the following formula: 100×[(T−T0)/(C−T0)] for T>T0 and 100×[(T−T0)/T0] for T<T0, wherein T0 corresponds to cell density at the time of drug addition.

[21] = A549, MTT, Table 2 HVR derivatives
[22] = A549, MTT, Table 1 helix 6 derivatives

| Substance | GI50 [1] [nM] | amount of Ras protein [2] | GI50 [3] [µM] | GI50 [4] [nM] | GI50 [5] [µM] | GI50 [6] [µM] | GI50 [7] [µM] | GI50 [8] [nM] | GI50 [9] [µM] | GI50 [10] [nM] | GI50 [11] [µM] | GI50 [12] [nM] | GI50 [13] [µM] | GI50 [14] [nM] | GI50 [15] [µM] | GI50 ([16]; A549, K-Ras mutant, Table 3) [nM] | GI50 [16, 21] [nM] | GI50 [16, 22] [nM] | other results |
| --- | --- | --- | --- | --- | --- | --- | --- | --- | --- | --- | --- | --- | --- | --- | --- | --- | --- | --- | --- |
| Ac-YRLKKISKEEKTPGLNVKIKKK-e-Pal [kR-4A-3] | 2600 | reduced the amount of Ras protein in lung cancer cells in a concentration-dependent manner | 7.4 | 3000 | > 10 | 5.1 | 6.1 | 2400 | > 10 | 2200 | 4 | 1500 | 8.2 | 2200 | 5.9 | 3100 | 1900 |  | Ras protein levels by immunostaining (K-Ras in H2592 cells): reduction in protein levels; pattern of K-Ras distribution (K-Ras in H2592 cells): lack of characteristic punctuate pattern of K-Ras distribution |
| Ac-KKKKKKSKTKK-e-Pal [kR-4B-3] | 2400 | reduced the amount of Ras protein in lung cancer cells in a concentration-dependent manner | 3.1 | 2700 | > 10 | 3.3 | 4.8 | 1500 | 7.3 | 2900 | 3 | 1000 | 6.2 | 2000 | 2.2 | 1450 | 1750 |  |  |
| Pal-e-KAFYTLVREIRQYR [kR-H6-6] |  |  |  |  |  |  |  |  |  |  |  |  |  |  |  |  |  | 250 | site of interaction with K-Ras [17]: localized interaction of the peptide with the Switch I region of K-Ras |
| Cap-YQRVQRVLTYFA (all D) [kR-H6-48] |  |  |  |  |  |  |  |  |  |  |  |  |  |  |  |  |  | 0.8 ± 0.5 | LLC1 isograft growth [18]: inhibited LLC1 isograft growth; GTP-bound Ras (fraction of control) [19]: reduction in activated (GTP-bound) Ras; growth of Ras-dependent cancer cells (cell number, percent of control) [20]: growth inhibition of Ras-dependent cancer cells |
